Test results taken from patent publication EP0054589B1, “Organic phosphoric acid ester derivatives, a process for preparing the same and insecticidal, miticidal or nematocidal compositions containing the same” (priority 1980, dated 1982).

How the values were obtained:
apple leaf miner = conditions: U.S. Patent No. 3,969,438; cited from earlier work
diamond back moth [1] = conditions: U.S. Patent No. 3,969,438; cited from earlier work
tobacco cutworm [2] = conditions: U.S. Patent No. 3,969,438; cited from earlier work
smaller tea tortrix = conditions: U.S. Patent No. 3,969,438; cited from earlier work
rice stem borer [3] = conditions: U.S. Patent No. 3,969,438; cited from earlier work
egg plant [4] = experiment: Phytotoxicity observed visually in the mite test on egg plant; assay type: in vivo; set-up: key: —: None; +: Slightly toxic; ++: Toxic; +++: Strongly toxic; conditions: 500 ppm, observed visually on the 7th day after the application
Method: (§1) (A) An emulsifiable concentrate prepared as described in Formulation Example 1 and diluted to a predetermined concentration was sprayed using a spray-gun on a seedling of an egg plant placed in a pot of 12 cm in diametre to which plant carmine mites resistant to Kelthane were parasitic. After drying in air, seedlings were kept in a green house, and the number of living insects was recorded on the 7th, 14th, 21 st and 28th day from the day of application to determine the control effects. Three pots were used for each treatment. The control effect was assessed by the formula described in TEST EXAMPLE 7 above. Further, phytotoxicity was observed visually on the 7th day after the application.
as §1, with “(B) An” for “(A) An”, “Example 3” for “Example 1”, “in diameter” for “in diametre”, “in Test” for “in TEST”

[5] = system: carmine mites resistant to Kelthane; experiment: Miticidal effect on carmine mite resistant to Kelthane (sprayed egg plant seedling); assay type: in vivo, Tetranychus cinnabarius; conditions: 500 ppm; for Number of Living Mites after Application 7th Day / Number of Living Mites after Application 14th Day / Number of Living Mites after Application 21st Day / Number of Living Mites after Application 28th Day: egg plant seedling; for Control Effect (%): from mite counts on 7th, 14th, 21st and 28th day
Method: as §1
as §1, with “(B) An” for “(A) An”, “Example 3” for “Example 1”, “in diameter” for “in diametre”, “in Test” for “in TEST”

carmine mites = experiment: Miticidal effect on carmine mite (sprayed kidney bean seedling); assay type: in vivo, Tetranychus cinnabarius; conditions: 500 ppm
Method: An emulsifiable concentrate prepared as described in Formulation Example 1 and diluted to a predetermined concentration was sprayed using a spray-gun on a seedling of a kidney bean placed in a pot of 12 cm in diameter to which plant carmine mites were parasitic. After drying in air, seedlings were kept in a green house, and the number of living insects was recorded on the 7th, 14th, 21st and 28th day from the day of application to determine the control effects. Three pots were used for each treatment. The control effect was assessed by the following formula: [formula] • wherein Σ indicates sum and Cb, Tb, Cai and Tai have the following meanings. • Cb: Number of living mites in non-treated sample before application. • Tb: Number of living mites in treated sample before application. • Cai: Number of living mites in non-treated sample 7th, 14th, 21 st or 28th day from the application. • Tai: Number of living mites in treated sample 7th, 14th, 21st or 28th day from the application.

rice stem borer [6] = experiment: Insecticidal effect on rice stem borer, 3rd-instar larvae (rice seedling dip); assay type: in vivo, Chilo suppressalis; conditions: Table 1; 500 ppm; after 72 hours, 25°C; wettable powder as Formulation Example 5
Summary of the method: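 Wettable-powder formulations were diluted in water to set concentrations, and rice seedlings were dipped in them. Ten 3rd-instar larvae were placed per capped cup with the treated seedlings and held at 25°C.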

Cabbage = experiment: Phytotoxicity on various crops; assay type: in vivo; set-up: key: Symbol — indicates that no toxicity was observed; conditions: 500 ppm sprayed; checked visually after 10 days
Summary of the method: (§2)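 Visual phytotoxicity rating at 10 days post-spray, greenhouse-grown plants. Treatment: EC formulation, 500 ppm a.i. in water, sprayed to full coverage. n=3 per compound.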

Rice = experiment: Phytotoxicity on various crops; assay type: in vivo; set-up: key: Symbol — indicates that no toxicity was observed; conditions: 500 ppm sprayed; checked visually after 10 days
Summary of the method: as §2

Tomato = experiment: Phytotoxicity on various crops; assay type: in vivo; set-up: key: Symbol — indicates that no toxicity was observed; conditions: 500 ppm sprayed; checked visually after 10 days
Summary of the method: as §2

Apple = experiment: Phytotoxicity on various crops; assay type: in vivo; set-up: key: Symbol — indicates that no toxicity was observed; conditions: 500 ppm sprayed; checked visually after 10 days
Summary of the method: as §2

Cotton = experiment: Phytotoxicity on various crops; assay type: in vivo; set-up: key: Symbol — indicates that no toxicity was observed; conditions: 500 ppm sprayed; checked visually after 10 days
Summary of the method: as §2

Green Pepper = experiment: Phytotoxicity on various crops; assay type: in vivo; set-up: key: Symbol — indicates that no toxicity was observed; conditions: 500 ppm sprayed; checked visually after 10 days
Summary of the method: as §2

egg plant [7] = experiment: Phytotoxicity on various crops; assay type: in vivo; set-up: key: Symbol — indicates that no toxicity was observed; conditions: 500 ppm sprayed; checked visually after 10 days
Summary of the method: as §2

Kidney Bean = experiment: Phytotoxicity on various crops; assay type: in vivo; set-up: key: Symbol — indicates that no toxicity was observed; conditions: 500 ppm sprayed; checked visually after 10 days
Summary of the method: as §2

Beet = experiment: Phytotoxicity on various crops; assay type: in vivo; set-up: key: Symbol — indicates that no toxicity was observed; conditions: 500 ppm sprayed; checked visually after 10 days
Summary of the method: as §2

Tea = experiment: Phytotoxicity on various crops; assay type: in vivo; set-up: key: Symbol — indicates that no toxicity was observed; conditions: 500 ppm sprayed; checked visually after 10 days
Summary of the method: as §2

Cucumber = experiment: Phytotoxicity on various crops; assay type: in vivo; set-up: key: Symbol — indicates that no toxicity was observed; conditions: 500 ppm sprayed; checked visually after 10 days
Summary of the method: as §2

tobacco cutworm [8] = experiment: Insecticidal effect on tobacco cutworm (cabbage leaf dip); assay type: in vivo, Prodenia litura; conditions: Table 3; 500 ppm; after 48 hours, 25°C; emulsifiable concentrate as Formulation Example 1
Summary of the method: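 Cabbage leaves dipped in water-diluted emulsifiable concentrate (two formulations, tests A and B) and air-dried were fed to 3rd-instar tobacco cutworm larvae at 25°C. Percent mortality scored after 48 hours; 3 replicates of 30 insects per compound.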

diamond back moth [9] = experiment: Insecticidal effect on diamond-back moth (cabbage leaf dip); assay type: in vivo, Plutella xylostella; conditions: Table 7; 100 ppm; after 72 hours, 25°C; emulsifiable concentrate as Formulation Example 1
Summary of the method: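 Cabbage leaves dipped 10 s in water-diluted emulsifiable concentrate at set concentration, air-dried; thirty 3rd-instar diamond-back moth larvae per cup held at 25°C. Percent mortality scored after 72 h, three replicates per treatment.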

[10] = Table 13, Formulation Example 1
[11] = Table 14, Formulation Example 3

| Compound | Phytotoxicit (egg plant [4]; Table 13) | Phytotoxicit (egg plant [4]; Table 14) | Number of Living Mites after Application 7th Day [5, 10] | Number of Living Mites after Application 14th Day [5, 10] | Number of Living Mites after Application 21st Day [5, 10] | Number of Living Mites after Application 28th Day [5, 10] | Control Effect (%) ([5]; Table 13) | Number of Living Mites after Application 7th Day [5, 11] | Number of Living Mites after Application 14th Day [5, 11] | Number of Living Mites after Application 21st Day [5, 11] | Number of Living Mites after Application 28th Day [5, 11] | Control Effect (%) ([5]; Table 14) | Percent Mortality (%) (rice stem borer [6]) | Phytotoxicity: Cabbage (Cabbage) | Phytotoxicity: Rice (Rice) | Phytotoxicity: Tomato (Tomato) | Phytotoxicity: Apple (Apple) | Phytotoxicity: Cotton (Cotton) | Phytotoxicity: Green Pepper (Green Pepper) | Phytotoxicity: Egg Plant (egg plant [7]) | other results |
| --- | --- | --- | --- | --- | --- | --- | --- | --- | --- | --- | --- | --- | --- | --- | --- | --- | --- | --- | --- | --- | --- |
| CCCSP(=O)(OCC)Oc1ccc2c(C)cc(=O)oc2c1 (stereo not shown) |  |  |  |  |  |  |  |  |  |  |  |  |  |  |  |  |  |  |  |  | pesticidal effect on apple leaf miner (apple leaf miner): less effective; pesticidal effect on diamond back moth (diamond back moth [1]): to some extent; pesticidal effect on tobacco cutworm (tobacco cutworm [2]): to some extent; pesticidal effect on smaller tea tortrix (smaller tea tortrix): to some extent; pesticidal effect on rice stem borer (rice stem borer [3]): to some extent |
| OC(c1ccc(Cl)cc1)(c1ccc(Cl)cc1)C(Cl)(Cl)Cl [Kelthane, 2,2,2-trichloro-1,1-bis(4-chlorophenyl)ethanol, reference compound] | +++(*) | +++(*) | 32 | 0 | 118 | 269 | 61.5% | 31 | 58 | 156 | 301 | 32.3% |  |  |  |  |  |  |  |  | Control Effect (%) (carmine mites; Table 12, from mite counts on 7th, 14th, 21st and 28th day): 99.0%; Number of Living Mites after Application 7th Day (carmine mites; Table 12, kidney bean seedling): 0; Number of Living Mites after Application 14th Day (carmine mites; Table 12, kidney bean seedling): 0; Number of Living Mites after Application 21st Day (carmine mites; Table 12, kidney bean seedling): 5; Number of Living Mites after Application 28th Day (carmine mites; Table 12, kidney bean seedling): 15 |
| CCOP(=O)(Oc1ccc2c(c1)OC(C)=CC2(C)C)SC(C)CC (stereo not shown) [compound 6] | — |  | 0 | 0 | 10 | 54 | 96.4% |  |  |  |  |  | 100% | — | — | — | — | — | — | — | Phytotoxicity: Kidney Bean (Kidney Bean): —; Phytotoxicity: Beet (Beet): —; Phytotoxicity: Tea (Tea): —; Phytotoxicity: Cucumber (Cucumber): —; Percent Mortality (%) (tobacco cutworm [8]): 100%; Control Effect (%) (carmine mites): 94.9%; Number of Living Mites after Application 7th Day (carmine mites): 0; Number of Living Mites after Application 14th Day (carmine mites): 0; Number of Living Mites after Application 21st Day (carmine mites): 4; Number of Living Mites after Application 28th Day (carmine mites): 45; Percent Mortality (%) (diamond back moth [9]): 100% |
| CCOP(=S)(Oc1ccc2c(c1)OC(C)=CC2(C)C)SC(C)CC (stereo not shown) [compound 11] | — | — | 0 | 3 | 10 | 48 | 97.0% | 0 | 2 | 17 | 56 | 93.1% | 100% | — | — | — | — | — | — | — | Phytotoxicity: Kidney Bean (Kidney Bean): —; Phytotoxicity: Beet (Beet): —; Phytotoxicity: Tea (Tea): —; Phytotoxicity: Cucumber (Cucumber): —; Percent Mortality (%) (tobacco cutworm [8]): 100%; Percent Mortality (%) (diamond back moth [9]): 100% |
